Experiments:
Type in all cases: in vivo
[1] = system: sensory panel; test: Sensory triangle test in chicken broth, Examples 3a and 3b; details: for Kokumi Intensity (0-5): scale 0 to 5, 5 most intensive, reference 2; for Sensory results (compared to 1): chicken broth, Example 3b
Protocol: (§1) Unless otherwise indicated, all sensory tests are triangle tests and are performed according to the guidelines in “Amtliche Sammlung von Untersuchungsverfahren nach § 35 LMBG (Lebensmittel-und Bedarfsgegenständegesetz)”; L 00.90 7, Untersuchung von Lebensmitteln, Sensorische Prüfverfahren, Dreiecksprüfung (Übernahme der gleichnahmigen Deutschen Norm DIN ISO 4120, Ausgabe Januar 1995), as follows:
The sensory panel is trained to evaluate the taste of aqueous solutions (4 ml each) of the following standard taste compounds by using a triangle test as described in the literature (Wieser and Belitz, Z. Lebensm. Unters. Forsch., 1975,159, 65-72): sucrose (40 mmol/L) for sweet taste; citric acid (5 mmol/L) for sour taste; NaCl (12 mmol/L) for salty taste; caffeine (2 mmol/L) for bitter taste; and monosodium glutamate (MSG; 6 mmol/L) for umami taste. For kokumi taste, a solution of glutathione (10 mmol/L) in diluted chicken broth concentrate (Goumet Bouillon Huhn, Maggi, Singen, Germany; 3 g/100 g bottled water (Evian®)) is prepared and compared to the taste of chicken broth with no glutathione added.
(§2) For recording the taste profiles, samples are prepared as indicated in the examples below. Taste profiles of samples are determined in a triangle test in three different sessions. Panellists refrain from eating or drinking for at least 1 hour prior to the session. At the start of the session and before each trial, the subject rinsed with water and expectorated. The participants receive a set of two blanks and one taste sample. Liquid samples are swirled around in the mouth briefly and expectorated. Solid samples are chewed for 20 seconds and then expectorated. […] Each sample with additive is compared to two reference samples without additives. Kokumi intensity is rated from 0-5 according to a scale from 0 to 5 (with 5 most intensive). The additive is added to a consumable and the sample is homogenised. The samples are presented to the sensory panel directly after homogenisation. The sensory panel included 6-8 trained individuals with exception of example 4, here the panel consists of 10 trained individuals.
Chicken broth is prepared by diluting 3 g of a chicken broth concentrate (Gourmet Bouillon Huhn, Nestle) with 100 ml water. Additives are added as specified in table below in a concentration of 10 mmol/L. The pH-value of all samples is adjusted to 6.5 using formic acid (0.1 mol/L) or sodium hydroxide (0.1 mol/L).
Kokumi intensity is rated according to a scale from 0 to 5 (with 5 most intensive). […] The additive is added to a consumable and the sample is homogenised.
The samples are presented to the sensory panel directly after homogenisation. The sensory panel included 8 trained individuals.
The samples are tested as described above in example 3a.

[2] = system: sensory panel; test: Sensory test in cream cheese, Example 4; details: for Sensory results (compared to 1): versus reference without additives; for Sensory results compared to 2: versus NaCl Reference (2000 ppm)
Protocol: as §1, §2
Samples are compared by a panel of 10 trained panelists.

[3] = system: sensory panel; test: Isointensity triangle test, S-substituted peptides in sodium salt solution (30 mmol/L NaCl), Example 1a; details: compound 10 mmol/L in aqueous NaCl 30 mmol/L, pH 6.5; reference without additive 30 mmol/L
Protocol: Unless otherwise indicated, all sensory tests are triangle tests and are performed according to the guidelines in “[…] von […]-und Bedarfsgegenständegesetz)”; L 00.90 7, Untersuchung von Lebensmitteln, Sensorische […] Deutschen Norm DIN ISO 4120, Ausgabe Januar 1995), as follows: The sensory panel is trained to evaluate the taste of aqueous solutions (4 ml each) of the following standard taste compounds by using a triangle test as described in the literature ([…] and Belitz, Z. Lebensm. Unters. Forsch., 1975,159, 65-72): sucrose (40 mmol/L) for sweet taste; citric acid (5 mmol/L) for sour taste; […] All sensory analyses are performed in a sensory panel room at 22-25° C. over three different sessions by a trained panel of 8 to 10 individuals. For recording the taste profiles, samples are prepared as indicated in the examples below. Taste profiles of samples are determined in a triangle test in three different sessions. Panellists refrain from eating or drinking for at least 1 hour prior to the session. At the start of the session and before each trial, the subject rinsed with water and expectorated. The participants receive a set of two blanks and one taste sample. Liquid samples are swirled around in the mouth briefly and expectorated. Solid samples are chewed for 20 seconds and then expectorated. […] Each sample with additive is compared to two reference samples without additives. Kokumi intensity is rated from 0-5 according to a scale from 0 to 5 (with 5 most intensive). The additive is added to a consumable and the sample is homogenised. The samples are presented to the sensory panel directly after homogenisation. The sensory panel included 6-8 trained individuals with exception of example 4, here the panel consists of 10 trained individuals. The compounds listed in the table below are dissolved in an aqueous solution (pH 6.5) of NaCl (30 mmol/L).

[4] = system: sensory panel; test: Sensory test in ketchup, Example 5; details: additive 500 ppm
Protocol: as §1
as §2, with “The sensory panel included 6-8 trained individuals with exception of example 4, here the panel consists of 10 trained individuals.” left out

[5] = system: sensory panel; test: Isointensity triangle test in sodium and potassium salt solution (30 mmol/L NaCl, 15 mmol/L KCl), Example 1b; details: NaCl 30 mmol/L + KCl 15 mmol/L, salt enhancer 10 mmol/L; without enhancer 40 mmol/L
Protocol: Unless otherwise indicated, all sensory tests are triangle tests and are performed according to the guidelines in “[…] von […]-und Bedarfsgegenständegesetz)”; L 00.90 7, Untersuchung von Lebensmitteln, Sensorische […] Deutschen Norm DIN ISO 4120, Ausgabe Januar 1995), as follows: For recording the taste profiles, samples are prepared as indicated in the examples below. Taste profiles of samples are determined in a triangle test in three different sessions. Panellists refrain from eating or drinking for at least 1 hour prior to the session. At the start of the session and before each trial, the subject rinsed with water and expectorated. The participants receive a set of two blanks and one taste sample. Liquid samples are swirled around in the mouth briefly and expectorated. Solid samples are chewed for 20 seconds and then expectorated. […] Each sample with additive is compared to two reference samples without additives. Kokumi intensity is rated from 0-5 according to a scale from 0 to 5 (with 5 most intensive). The additive is added to a consumable and the sample is homogenised. The samples are presented to the sensory panel directly after homogenisation. […] KCl is often used in small concentrations to reduce sodium without loss of salty taste. […] For the samples compared and the results see the table below.

SMILES: N[C@@H](CCC(=O)N[C@@H](CS)C(=O)NCC(=O)O)C(=O)O [GSH reduced, glutathione]
- Kokumi Intensity (0-5) ([1]; chicken broth pH 6.5, additive 10 mmol/L): 3.5

SMILES: N[C@@H](CCC(=O)O)C(=O)[O-].[Na+] [MSG, monosodium glutamate]
- Sensory results (compared to 1) ([1]; additive 2000 ppm): Higher umami intensity

SMILES: [Cl-].[Na+] [NaCl, sodium chloride, reference compound]
- Sensory results (compared to 1) ([1]; additive 2000 ppm): More salty
- Sensory results (compared to 1) ([2]; additive 2000 ppm): More salty

SMILES: CCOC(=O)[C@@H](N)CSC(CC(=O)O)C(=O)O (stereo partly drawn) [S-(α,β-dicarboxyethyl) cysteine ethyl ester]
- concentration of an isointense NaCl-solution [3]: 42 mmol/L

SMILES: COC(=O)[C@@H](N)CSC(CC(=O)O)C(=O)O (stereo partly drawn) [S-(α,β-dicarboxyethyl) cysteine methyl ester]
- concentration of an isointense NaCl-solution [3]: 38 mmol/L

SMILES: N[C@@H](CCC(=O)N[C@@H](CSC(CC(=O)O)C(=O)O)C(=O)NCC(=O)O)C(=O)O (stereo partly drawn) [S-(α,β-dicarboxyethyl) γ-L-glutamyl-L-cysteinyl-glycine]
- Kokumi Intensity (0-5) ([1]; chicken broth pH 6.5, additive 400 ppm): 3.5
- concentration of an isointense NaCl-solution [3]: 48 mmol/L
- Sensory results (compared to 1) [4]: Slightly more salty
- Sensory results compared to 2 ([2]; additive 1000 ppm): greater effect on saltiness than the addition of NaCl
- concentration of an isointense NaCl-solution [5]: 57 mmol/L

SMILES: CCOC(=O)C(CSC(CC(=O)O)C(=O)O)NC(=O)CC[C@H](N)C(=O)O (stereo partly drawn) [S-(α,β-dicarboxyethyl) γ-L-glutamyl-cysteine ethyl ester]
- concentration of an isointense NaCl-solution [3]: 48 mmol/L

SMILES: N[C@@H](CCC(=O)N[C@@H](CSC(CC(=O)O)C(=O)O)C(=O)O)C(=O)O (stereo partly drawn) [S-(α,β-dicarboxyethyl) γ-L-glutamyl-cysteine]
- concentration of an isointense NaCl-solution [3]: 60 mmol/L
- Sensory results compared to 2 ([2]; additive 1000 ppm): greater effect on saltiness than the addition of NaCl

SMILES: N[C@@H](CSC(CC(=O)O)C(=O)O)C(=O)O (stereo partly drawn) [S-(α,β-dicarboxyethyl)-L-cysteine, S-(α,β-dicarboxyethyl) cysteine]
- Sensory results (compared to 1) ([1]; additive 400 ppm): More salty
- concentration of an isointense NaCl-solution [3]: 40 mmol/L
- Sensory results compared to 2 ([2]; additive 1000 ppm): Slightly more salty
- Sensory results (compared to 1) ([2]; additive 1000 ppm): More salty

SMILES: N[C@@H](CCC(=O)N[C@@H](CSCCC(=O)O)C(=O)NCC(=O)O)C(=O)O [β-S-(carboxyethyl) γ-L-glutamyl-L-cysteinyl-glycine]
- concentration of an isointense NaCl-solution [3]: 38 mmol/L

SMILES: N[C@@H](CCC(=O)N[C@@H](CSC(CCC(=O)O)C(=O)O)C(=O)NCC(=O)O)C(=O)O (stereo partly drawn) [β-S-(α,γ-dicarboxypropyl) γ-L-glutamyl-L-cysteinyl-glycine]
- concentration of an isointense NaCl-solution [3]: 48 mmol/L
